Assay results reported in US7642283B2, “Mitochrondrial permeability transition pore affinity labels and modulators” (Hoffmann-La Roche Inc., priority 2003, dated 2010).

Key:
[1] = target: T1, VDAC1 (Rattus norvegicus, UniProt Q9Z2L0); test: Affinity labeling of rat mitochondria with the tritiated spiro compound, SDS-PAGE and fluorography; assay type: binding
T1 construct: from tissue; host or cells: Percoll-purified rat brain and liver mitochondria
Protocol: FIG. 6: Affinity-labeling of isolated rat brain (A) and liver (B) mitochondria. Mitochondrial preparations were incubated in the presence of 10 nM Spiro[cyclopentane-1,5′-[5H]dibenzo[a,d]cyclohepten]-2-one,10′,11′-t2-10′,11′-dihydro-3-methylene- for 15 min at 25° C. in presence or absence of various concentrations of Spiro[cyclopentane-1,5′-[5H]dibenzo[a,d]cyclohepten]-2-one,10′,11′-dihydro-3-methylene-(unlabeled). Samples were submitted to SDS-PAGE (see Experimental Procedures section for details) and fluorography. The fluorograms of the gels are shown. The molecular mass scale (kDa) is shown in the ordinate.
(§1) FIG. 8: (A) Effect of monobromobimano (MBBM) and phenylarsino oxide (PhAO) on VDAC1 labeling by Spiro[cyclopentane-1,5′-[5H]dibenzo[a,d]cyclohepten]-2-one,10′,11′-t2-10′,11′-dihydro-3-methylene- in rat brain mitochondria. Experimental conditions were as in the legend to FIG. 5. (B) Effect of various MPTP inhibitors, atractyloside (ATR) and DIDS on VDAC1 labeling by Spiro[cyclopentane-1,5′-[5H]dibenzo[a,d]cyclohepten]-2-one,10′,11′-t2-10′,11′-dihydro-3-methylene- in rat brain mitochondria. Mitochondria were exposed to DIDS for 5 min before rinsing for removal of the free agent and labeling with Spiro[cyclopentane-1,5′-[5H]dibenzo[a,d]cyclohepten]-2-one,10′,11′-t2-10′,11′-dihydro-3-methylene.
Percoll purified mitochondria (˜30 μg protein per sample) were incubated in the presence of 10 nM Spiro[cyclopentane-1,5′-[5H]dibenzo[a,d]cyclohepten]-2-one,10′,11′-t2-10′,11′-dihydro-3-methylene- in a final volume of 200 μl. After incubation for 15 min at 25° C., samples were centrifuged at 25000×g and the mitochondrial pellet rinsed twice with buffer. Samples were then solubilized in sample buffer containing β-mercaptoethanol (1 h at 37° C.) and subjected to SDS-polyacrylamide gel-electrophoresis (SDS-PAGE) on Tris-glycine Novex pre-cast mini-gels (12% monomer concentration, Invitrogen BV, The Netherlands). After Coomassie Blue staining, gels were processed for fluorography by soaking in Amplify™ (Amersham Biosciences), drying and exposing to X-ray BioMax MS film with BioMax MS intensifying screen (Kodak) at −80° C. for the appropriate time.
as §1, with “Effect” for “FIG. 8: (A) Effect”, “monobromobimano” for “monobromobimano (MBBM)”, “oxide” for “oxide (PhAO)”, “Example 12 (FIG. 8A).” for “the legend to FIG. 5. (B)”, “Spiro[cyclopentane-1,5′-[5H]dibenzo[a,d]cyclohepten]-2-one,10′,11′-t2-10′,11′-dihydro-3-methylene (FIG. 8B).” for “Spiro[cyclopentane-1,5′-[5H]dibenzo[a,d]cyclohepten]-2-one,10′,11′-t2-10′,11′-dihydro-3-methylene.”

[2] = target: T2, MPTP (Rattus norvegicus, UniProt Q9Z2L0); test: Ca2+-retention capacity of rat brain mitochondria (Calcium Green-5N); assay type: biochemical; conditions: Ca2+ pulses, rat brain mitochondria
T2 construct: other: n=2; glutamate/malate; other: glutamate/malate; 20 min; mean±SEM; unit not given; other: 300 nM; relieved by 50 μM Ub5
T2 sequence (Q9Z2L0 2-283): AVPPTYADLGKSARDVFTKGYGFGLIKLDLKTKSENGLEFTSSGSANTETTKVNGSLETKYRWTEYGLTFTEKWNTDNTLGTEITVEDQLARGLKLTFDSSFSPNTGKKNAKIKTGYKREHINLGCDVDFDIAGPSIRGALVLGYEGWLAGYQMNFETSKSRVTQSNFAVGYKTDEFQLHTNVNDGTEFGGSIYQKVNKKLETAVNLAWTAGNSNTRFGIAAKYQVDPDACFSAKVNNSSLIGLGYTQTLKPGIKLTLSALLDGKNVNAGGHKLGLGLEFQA
Protocol: FIG. 4: (A) Effect of Spiro[cyclopentane-1,5′-[5H]dibenzo[a,d]cyclohepten]-2-one,10′,11′-dihydro-3-methylene- and CsA on Ca^2+-retention capacity of rat brain mitochondria. The incubation medium contained 0.2 M sucrose, 10 mM Tris-Mops, pH 7.4, 1 mM Pi-Tris, 5 μM EGTA and 5 mM glutamate/2.5 mM malate, buffered to pH 7.4 with Tris, containing 0.01% (w/v) bovine serum albumin and 1 μM Calcium Green-5N. The final volume was 2.5 ml. Trace (a) control, (b) 1 μM CsA, (c) 1 μM Spiro[cyclopentane-1,5′-[5H]dibenzo[a,d]cyclohepten]-2-one,10′,11′-dihydro-3-methylene- and (d) 1 μM CsA plus 1 μM Spiro[cyclopentane-1,5′-[5H]dibenzo[a,d]cyclohepten]-2-one,10′,11′-dihydro-3-methylene-. Each fluorescence spike corresponds to addition of 5 μM Ca^2+. (B) Comparison of Ca^2+-retention capacity in liver (a) and brain mitochondria (b).
Effect of Spiro[cyclopentane-1,5′-[5H]dibenzo[a,d]cyclohepten]-2-one,10′,11′-dihydro-3-methylene- and CsA on Ca^2+-retention capacity of rat brain mitochondria (FIG. 4). Measurement of extramitochondrial Ca^2+ was determined using a Perkin-Elmer LS-50B fluorimeter controlled by the FL WinLab computer program. […] The final volume was 2.5 ml and the cuvette was thermostated at 25° C. Brain mitochondria were then subjected to a train of 5 μM Ca^2+ additions (˜150 nmol mg protein^−1). Extramitochondrial Ca^2+ was monitored at excitation/emission wavelengths of 505-535. […] The Ca^2+-retention capacity in liver (a) and brain mitochondria (b) were also compared (FIG. 4B).
The effect of Spiro[cyclopentane-1,5′-[5H]dibenzo[a,d]cyclohepten]-2-one,10′,11′-dihydro-3-methylene- at inhibiting MPTP was also investigated in mitochondria isolated from rat forebrain. […] Due to the difficulties mentioned above, the effect of Spiro[cyclopentane-1,5′-[5H]dibenzo[a,d]cyclohepten]-2-one,10′,11′-dihydro-3-methylene- on MPTP in brain mitochondria was more accurately investigated by subjecting mitochondria isolated from rat forebrain to a series of Ca^2+ pulses (5 μM, ˜150 nmol mg protein^−1) and by monitoring extramitochondrial Ca^2+ or using fluororescent probes.

[3] = system: MPTP; test: Ca2+-induced swelling (MPTP) in rat liver mitochondria energised with succinate; assay type: biochemical; conditions: as E1, in the presence of 1 μg/ml oligomycin
Protocol: Ca^2+-induced swelling (sucrose permeability) in energized mitochondria was assayed at 25° C. in 96 well-plates by measuring changes in absorbance at 540 nm by means of a […]ax 250 spectrophometer controlled by the SOFTmax PRO™ software (Molecular Devices, Switzerland). The incubation medium contained 0.2 M sucrose, 10 mM Tris-Mops, pH 7.4, 1 mM Pi-Tris, 5 μM EGTA. Succinate (5 mM, in the presence of 2 μM rotenone) or 5 mM glutamate/2.5 mM malate, buffered to pH 7.4 with Tris, were used as respiratory substrates. After a short (˜5 min) preincubation in presence or absence of test compounds, mitochondrial swelling was induced by the addition of 20 μl CaCl2 at final concentrations ranging from 40 to 80 μM, depending on respiratory substrates and Ca^2+ sensitivity of the mitochondrial preparation. The final incubation volume was 0.2 ml and the concentration of mitochondria was ˜0.5 mg mitochondrial protein ml^−1. Swelling kinetics was followed for up to 30 min at 25° C. Absorbance readings were taken every 12 sec and the plate was shaken for 3 s between readings to ensure oxygen diffusion during the experiment and to avoid sedimentation of the mitochondria.
The incubation medium contained 0.2 M sucrose, 10 mM Tris-Mops, pH 7.4, 1 mM Pi-Tris, 5 μM EGTA.

[4] = target: T3, human VDAC1 (Homo sapiens, UniProt P21796); test: Affinity labeling of Δpor1 yeast mitochondria expressing human VDAC1; assay type: binding; conditions: Δpor1 strains with plasmid expressing human VDAC1
T3 construct: expressed in transfected cells; host or cells: Δpor1 yeast strain transformed with a human VDAC1 plasmid; isolated mitochondria
T3 sequence (P21796 whole entry): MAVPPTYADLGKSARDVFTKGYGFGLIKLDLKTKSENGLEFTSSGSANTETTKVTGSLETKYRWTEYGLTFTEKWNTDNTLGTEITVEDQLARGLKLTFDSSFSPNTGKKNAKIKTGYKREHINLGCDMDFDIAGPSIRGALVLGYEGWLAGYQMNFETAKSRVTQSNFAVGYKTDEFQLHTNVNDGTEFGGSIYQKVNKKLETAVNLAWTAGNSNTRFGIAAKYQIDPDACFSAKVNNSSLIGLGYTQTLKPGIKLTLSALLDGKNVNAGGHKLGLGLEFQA
Description: (§2) To further confirm VDAC1 as the protein target of Spiro[cyclopentane-1,5′-[5H]dibenzo[a,d]cyclohepten]-2-one,10′,11′-dihydro-3-methylene-, the labeling of proteins in mitochondria prepared from yeasts by Spiro[cyclopentane-1,5′-[5H]dibenzo[a,d]cyclohepten]-2-one,10′,11′-t2-10′,11′-dihydro-3-methylene- was investigated. […] Increasing concentration of unlabelled Spiro[cyclopentane-1,5′-[5H]dibenzo[a,d]cyclohepten]-2-one,10′,11′-dihydro-3-methylene-inhibited incorporation of the radioactivity (FIG. 9).

[5] = system: YVDAC1; test: Affinity labeling of yeast mitochondria (Δpor1 and Δpor1 expressing YVDAC1); assay type: binding; conditions: Δpor1 strains
Description: (§3) FIG. 9: Spiro[cyclopentane-1,5′-[5H]dibenzo[a,d]cyclohepten]-2-one,10′,11′-t2-10′,11′-dihydro-3-methylene affinity labeling of yeast mitochondria lacking the por1 gene for YVDAC1 (Δpor1) and into Δpor1 yeast mitochondria transfected with YVDAC1 in presence or absence of different concentrations of Spiro[cyclopentane-1,5′-[5H]dibenzo[a,d]cyclohepten]-2-one,10′,11′-dihydro-3-methylene (unlabeled). The fluorograms of gels after SDS-PAGE are shown. Mitochondria isolated from yeast strains were incubated in the presence of 10 nM Spiro[cyclopentane-1,5′-[5H]dibenzo[a,d]cyclohepten]-2-one,10′,11′-t2-10′,11′-dihydro-3-methylene for 15 min at 25° C. Numbers indicate the concentrations (μM) of the various compounds added.
as §2

[6] = target: T4, YVDAC1 (Saccharomyces cerevisiae, UniProt P04840); test: as above; assay type: binding; conditions: Δpor1 strains with plasmid expressing YVDAC1
T4 construct: expressed in transfected cells; host or cells: Δpor1 yeast strain carrying a YVDAC1 plasmid; isolated mitochondria
T4 sequence (P04840 2-283): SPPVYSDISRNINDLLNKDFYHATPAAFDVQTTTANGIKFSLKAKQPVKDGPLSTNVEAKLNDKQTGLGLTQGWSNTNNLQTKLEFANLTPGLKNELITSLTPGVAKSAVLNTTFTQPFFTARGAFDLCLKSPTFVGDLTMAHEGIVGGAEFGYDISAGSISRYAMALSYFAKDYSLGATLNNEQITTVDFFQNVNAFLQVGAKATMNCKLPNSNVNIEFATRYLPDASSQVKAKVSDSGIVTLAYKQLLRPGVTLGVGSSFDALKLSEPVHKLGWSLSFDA
Description: as §3, §2

T1 sequence (Q9Z2L0 whole entry): as the sequence (P21796 whole entry) above, with T55N, M129V, A160S, I227V counted along it

Structure (SMILES)	Effect on VDAC1 labeling (incorporation of radioactivity) by the tritiated spiro compound ([1]; rat brain mitochondria, 10 nM radiolabel)	Additive effect when combined with the spiro compound (Example 2) [2]	EC50 [3] [µM]	Labeling of ~32 kDa protein (VDAC1) ([1]; 10 nM, intact rat brain and liver mitochondria)	Labeling in yeast mitochondria expressing human VDAC1 [4]	Labeling in yeast mitochondria lacking YVDAC1 [5]	Labeling of 29 kDa band in yeast mitochondria [6]
Nc1ncnc2c1ncn2[C@@H]1O[C@H](COP(=O)(O)OP(=O)(O)O)[C@@H](O)[C@H]1O [ADP]	did not affect	additive	4.8	–	–	–	–
[3H]C1c2ccccc2C2(CCC(=C)C2=O)c2ccccc2C1[3H] (stereo not shown) [Spiro[cyclopentane-1,5′-[5H]dibenzo[a,d]cyclohepten]-2-one,10′,11′-t2-10′,11′-dihydro-3-methylene-]	–	–	–	predominantly labeled	no dear labeling	virtually no labeling	prominent labeling
